{"source": "patent US20090163436A1", "about": "“METHODS FOR DELIVERY OF NUCLEIC ACIDS” (Nucleonics, Inc., priority 2002, published 2009)", "molecules": {"B1": {"name": "recombinant murine IL-12: recombinant murine IL-12 protein, 50 ug at day 0 (protein, UniProt P43431 23-215; P43432 23-335, looked up)", "Interleukin-12 subunit alpha": "RVIPVSGPARCLSQSRNLLKTTDDMVKTAREKLKHYSCTAEDIDHEDITRDQTSTLKTCLPLELHKNESCLATRETSSTTRGSCLPPQKTSLMMTLCLGSIYEDLKMYQTEFQAINAALQNHNHQQIILDKGMLVAIDELMQSLNHNGETLRQKPPVGEADPYRVKMKLCILLHAFSTRVVTINRVMGYLSSA", "Interleukin-12 subunit beta": "MWELEKDVYVVEVDWTPDAPGETVNLTCDTPEEDDITWTSDQRHGVIGSGKTLTITVKEFLDAGQYTCHKGGETLSHSHLLLHKKENGIWSTEILKNFKNKTFLKCEAPNYSGRFTCSWLVQRNMDLKFNIKSSSSSPDSRAVTCGMASLSAEKVTLDQRDYEKYSVSCQEDVTCPTAEETLPIELALEARQQNKYENYSTSFFIRDIIKPDPPKNLQMKPLKNSQVEVSWEYPDSWSTPHSYFSLKFFVRIQRKKEKMKETEEGCNQKGAFLVEKTSTEVQCKGGNVCVQAQDRYYNSSCSKWACVPCRVRS"}}, "key": {"[1]": {"experiment": "Example 3: tissue distribution of labeled DNA after IV administration", "conditions": "for total amount of CPMs in all of the organs combined, rank order: 5 days following IV, lung, heart, kidney, spleen, liver", "protocol": "(§1) DNA is complexed with spermines as described in the previous two examples at the optimal charge ratio of 0.8 with either the monolactosyl, trilactosyl, or mannosyl (mono and bis) spermine to achieve a final DNA concentration of 1.0 mg/mL in citrate buffer at 5 mM and 150 mM NaCl.\n(§2) The mice, 5 per group, are injected intravenously through the tail vein (100 uL). Mice are sacrificed at various times as indicated for serum analysis of plasmid DNA to determine blood clearance. To determine the amount of plasmid in blood, one mL of serum is placed in liquid scintillation counters with fluor to quantify the CPMs associated with each sample. In order to determine tissue distribution, various organs are harvested on day 5 (peak of expression from previous studies) and snap frozen. Whole organs from the animals are harvested livers from 3 animals in the group of 5 are ground in mild alkali (100 mM KOH) and neutralized with acid (HCl) prior to scintillation counting. Livers from the remaining two animals are embedded in paraffin and sectioned as described in Example 2 and stained for betagalactosidase activity, as described.\n(§3) In the second part of the study, distribution of DNA amongst some of the major organs is evaluated 5 days following IV administration. A simple tissue grind and scintillation counting is carried out. The organs chosen (lung, heart, kidney, spleen, and liver) for analysis represent the major capillary beds."}, "[2]": {"experiment": "Example 3: blood clearance of 14C-labeled plasmid DNA after IV administration", "protocol": "Bacteria containing the beta-galactosidase expression plasmid are grown in minimal M9 media (Miller, CSHS laboratory Press) in glucose as the sole carbon source overnight. The cells are washed in minimal media thrice through centrifugation and resuspension in M9 media without the carbon source, and resuspended in M9 with uniformally 14C-labeled ribose (NEN, MA) and deoxynucleosides (NEN, MA) for 3 hours. The cells are harvested, and the plasmid is isolated using Qiagen miniprep columns (Qiagen, Inc., CA). The labeled plasmid is mixed with unlabeled plasmid to achieve a specific activity of 3 million CPM per 100 ug plasmid.\nas §1\nThe mice, 5 per group, are injected intravenously through the tail vein (100 uL). Mice are sacrificed at various times as indicated for serum analysis of plasmid DNA to determine blood clearance. To determine the amount of plasmid in blood, one mL of serum is placed in liquid scintillation counters with fluor to quantify the CPMs associated with each sample. […]"}, "[3]": {"tested_on": "cells derived from the spleen", "conditions": "IV administration, separate study", "protocol": "The complexes are prepared as described above except that 5 mM citrate and 150 mM NaCl are used as buffer. To determine the transfection efficiency, the spleen is removed from mice on day 5. Cells are recovered by crushing the spleen on a slide and observing EGFP fluorescence by fluorescent microscopy. The cell type is identified by cross-staining staining the preparation with labeled MAC1 antibody (macrophage identification) or labeled mannosylated BSA (identification of mannose receptor containing cells) (Current Protocols in Immunology).\nIn the study evaluating the distribution and blood clearance of DNA following an IV administration, labeled DNA is separately complexed with modified spermines (only monocomplexes of any one spermine is used in this study). Mannose (mono and bis) and lactose (mono and tri) spermines are used separately in these complexes. Unmodified spermine and spermidine complexes with DNA serve as controls."}, "[4]": {"experiment": "Example 4: oral delivery of luciferase plasmid microemulsions", "experimental": "The objective is to develop microemulsion (ME) formulations designed for oral delivery of DNA. Microemulsions for oral delivery are prepared using a mixture that contains DNA or other nucleic acids (2.0 mg/mL in, e.g., 30 mM citrate, 150 mM NaCl pH 6.8 buffer) and benzalkonium chloride (0.1%). The mixture is further mixed in equal volumes to a mixture that contains seven parts of Labrasol™ (Gattefosse, Saint-Priest Cedex, France), one part of Lauroglycol (polypropylene esters such as Lauroglycol FCC for oral administration from Gattefosse, France) and two parts of ethanol. Other formulations contain bupivacaine at 0.25%, octyl spermine at 2.0 mg/mL, or cholesteryl spermine at 2.0 mg/mL, instead of benzalkonium chloride and lauroglycol in the above formulation. […] The DNA tested is an expression plasmid for luciferase (Promega Corp.). […] The formulation (100 uL) containing DNA is fed to mice (5 in one formulation group) by intubating the stomach. Five days following administration, several organs including kidney, liver, lung, intestinal segments (ileum, duodenum, small intestine and large intestine), brain, heart, and spleen are harvested and snap frozen. The tissues are homogenized in luciferase buffer (Promega Corp., Madison, Wis.) using a polytron. Luciferase activity is determined using a luminometer (Berthold) and in the assay buffer (Promega Corp., Madison, Wis.)."}, "[5]": {"experiment": "In vivo transfection with local anesthetic complexed DNA versus naked DNA", "conditions": "IL12 DNA complexed with 0.25% bupivacaine", "source_text": "As compared to cationic lipids, simple structures derived from water-soluble amphiphiles have a higher probability of forming transfecting structures that are uniform and homogenous, which is expected to result in increased efficiency, predictability, and potency. We selected cationic amphiphiles that are membrane active, such as the local anesthetics, e.g., bupivacaine (see U.S. Pat. No. 6,383,512, “Vesicular complexes and methods of making and using the same,” which describes compositions comprising lamellar vesicles that comprise a local anesthetic, e.g., bupivacaine, and a nucleic acid molecule). In particular, this reference describes compositions and methods for delivery of nucleic acid molecules that are antisense, ribozyme, or triplex forming nucleic acid molecules, as well as nucleic acid molecules that encode proteins (e.g., non-immunogenic therapeutically effective proteins, and immunogenic proteins designed to elicit a desired immune response in a host). Experiments were carried out to determine whether such vesicular complexes could be used to deliver dsRNA expression constructs capable of eliciting RNAi. […] Additionally, these are currently used in humans, and their toxicity/dose profiles are well characterized. In contrast, the associated toxicity of lipids that transfect efficiently in vitro may preclude their use in vivo. […]"}, "[6]": {"experiment": "Example 4: phase location of DNA in cationic amphiphile emulsions", "assay_type": "physicochemical", "conditions": "formulation containing the named cationic amphiphile"}, "[7]": {"tested_on": "liver cells (hepatocytes, Kupfer cells)", "conditions": "IV; for liver cell type transfected: betagal staining of liver slices", "experimental": "The mixture is injected intravenously (100 uL) of 5 mice for each formulation variant. Formulations variants included different charge ratios and various lactosyl spermine to cholesteryl spermine ratios. At 5 days postinjection, when in vivo plasmid expression peaks, the mice are sacrificed, and their livers are removed and snap frozen for histological analysis. Several slices of the liver tissue both near and farther from the major blood vessels and the bile ducts are embedded into paraffin and sectioned using a microtome. The tissue slices are stained using X-gal (an enzymatic substrate for betagalactosidase). The liver tissue slices are stained using labeled lactosylated BSA, as a cross stain to identify hepatocytes (asialoglycoprotein receptor). The slides are viewed under an UV fluoroscent microscope to detect the label fluorescence, and the betgal stain is observed under light microscopy. Control mice are administered “naked” DNA free of added complexing agents and DNA complexed with either lactosyl spermine or cholesteryl spermine, but not both."}, "[8]": {"conditions": "mouse, in vivo, iv", "protocol": "as §1, §2, §3"}, "[9]": {"tested_on": "peritoneal cells (macrophages, dendritic cells)", "protocol": "Peritoneal fluid was isolated from mice. Plasmid DNA designed to express the green fluorescent protein (GFP) in mammalian cells was complexed with a mixture of the two spermines, mannosyl-mannosyl-spermine and cholesteryl spermine, at different ratios. The complexes were applied to peritoneal cells in culture. The fluorescence intensity of the cells were recorded. The complexes that were prepared for the ex vivo study were injected into the peritoneal cavity of mice. Four and five days following the injection, the cells were collected from the peritoneal cavity and spun down on slides and their ability to fluoresce was determined. The fluorescence intensities were recorded visually.\nLabeled antibodies to defined cell surface markers were used to identify the cell type."}, "IL-12 p40": {"tested_on": "IL-12 p40", "experiment": "Example 5: serum IL-12 p40 ELISA after intramuscular IL-12 plasmid in Balb/C mice", "conditions": "mouse, in vivo", "experimental": "Expression of the murine IL-12 transgenes was achieved through the use of vectors containing the HCMV IE promoter and SV40 polyadenation signal. ELISA of serum IL-12 p40 levels affords a facile system to analyze expression levels and the effectiveness of the administered DNA. p40 is one of the two polypeptide chains comprising IL-12.\nIn all of the RNAi studies described here using IL12 DNA (IL12, dsRNA producing vector and vector encoding T7 RNA polymerase), IL12 DNA was administered as a complex with bupivacaine, a local anesthetic, since higher in vivo transfection efficiencies (˜3×) are achieved with this complex over those mediated by naked DNA. […]\nIn another set of experiments, murine IL-12 p40 expression in sera was monitored in mice following intramuscular injection of a 100 ug dose of murine IL-12 expression plasmids or in naïve mouse controls that were not injected. […]\nMurine IL-12 p40 serum expression was monitored following intramuscular injection of 100 ug IL-12 expression plasmids in mice injected at days 0 and 150 or in mice injected only at day 150. […]"}}, "note": "Like-named read-outs stand apart in the source and are kept apart here."}
{"molecule": "CC(=O)O.CC(=O)O.CC(=O)O.CC(=O)O.NCCCN(CCCCCNC(=O)CCS[C@H]1O[C@H](CO)[C@@H](O)[C@H](O)[C@@H]1O)CCCCN(CCCN)CCCCCNC(=O)CCS[C@H]1O[C@H](CO)[C@@H](O)[C@H](O)[C@@H]1O", "note": "[bismannosyl spermine, N^4,N^8-bis (5-N-(α-3′-propionamido thiomannoside)pentyl)-spermine tetraacetate]", "values": [{"measurement": "total amount of CPMs in all of the organs combined, rank order", "setting": "[1]", "result": "trilactosyl>monolactosyl≅bismannosyl≅monomannosyl>>>controls"}, {"measurement": "blood clearance slower than trilactosyl spermine complexes", "setting": "[2]; DNA monocomplex", "result": "50-100 times"}, {"measurement": "blood clearance of DNA", "setting": "[2]; DNA monocomplex with the named spermine, charge ratio 0.8", "result": "rapid clearance"}, {"measurement": "cells taking up the complexes", "setting": "[3]", "result": "taken up exclusively by cells of the macrophage and dendritic cell lineages"}]}
{"molecule": "CCCCN1CCCCC1C(=O)Nc1c(C)cccc1C", "note": "(centres unmarked) [bupivacaine, reference compound]", "values": [{"measurement": "systemic absorption of DNA", "setting": "[4]; mouse, in vivo, po", "result": "Maximal systemic absorption"}, {"measurement": "in vivo transfection efficiency over naked DNA", "setting": "[5]", "result": "~3", "unit": "×"}, {"measurement": "phase of the oil in water emulsion that holds the DNA", "setting": "[6]", "result": "in the oil phase"}]}
{"molecule": "CC(C)CCC[C@@H](C)[C@H]1CC[C@H]2[C@@H]3CC=C4C[C@@H](OC(=O)NCCCCCN(CCCN)CCCCNCCCN)CC[C@]4(C)[C@H]3CC[C@]12C.Cl", "note": "[cholesteryl spermine, N^4-(5-N-(3β-O-carbamoyl-5-cholestene)-1-pentyl)-spermine Hydrochloride]", "values": [{"measurement": "systemic absorption of DNA", "setting": "[4]; oral microemulsion containing the named cationic amphiphile", "result": "Maximal systemic absorption"}, {"measurement": "phase of the oil in water emulsion that holds the DNA", "setting": "[6]", "result": "in the oil phase"}]}
{"molecule": "N^4-(5-(trilactosyllysyllysyl) amidopentyl spermine triacetate [trilactosyl spermine]", "values": [{"measurement": "total amount of CPMs in all of the organs combined, rank order", "setting": "[1]", "result": "trilactosyl>monolactosyl≅bismannosyl≅monomannosyl>>>controls"}]}
{"molecule": "benzalkonium chloride", "values": [{"measurement": "systemic absorption of DNA", "setting": "[4]; mouse, in vivo, po", "result": "Maximal systemic absorption"}, {"measurement": "phase of the oil in water emulsion that holds the DNA", "setting": "[6]", "result": "in the oil phase"}]}
{"molecule": "lactosyl spermine", "values": [{"measurement": "retention of DNA", "setting": "[1]; IV, DNA monocomplex with modified spermine", "result": 30, "unit": "%"}, {"measurement": "liver cell type transfected", "setting": "[7]", "result": "primarily transfect hepatocytes"}, {"measurement": "DNA internalization, cell type", "setting": "[7]; liver sections, day 5", "result": "exclusively into hepatocytes"}, {"measurement": "betagalactosidase expression", "setting": "[7]; liver sections, no cholesteryl spermine in complex", "result": "poor"}]}
{"molecule": "mannosyl spermine", "values": [{"measurement": "retention of DNA", "setting": "[8]", "result": 85, "unit": "%"}, {"measurement": "expression from the internalized plasmid", "setting": "[9]; GFP plasmid", "result": "observed only when cholesteryl spermine was included"}, {"measurement": "internalization of labeled DNA particles", "setting": "[9]; all of the tested ratios", "result": "internalized"}, {"measurement": "liver cell type transfected", "setting": "[7]", "result": "transfect Kupfer cells"}]}
{"molecule": "octyl spermine", "values": [{"measurement": "systemic absorption of DNA", "setting": "[4]; mouse, in vivo, po", "result": "Maximal systemic absorption"}, {"measurement": "phase of the oil in water emulsion that holds the DNA", "setting": "[6]", "result": "in the oil phase"}]}
{"molecule": "B1", "values": [{"measurement": "effect of pre-treatment on IL-12 expression", "setting": "IL-12 p40", "result": "does not prevent subsequent expression"}]}
